Source: ChEMBL document CHEMBL4613241, “Disulfide Cleavage in a Dimeric Epipolythiodioxopiperazine Natural Product Diminishes Its Apoptosis-Inducing Effect but Enhances Autophagy in Tumor Cells” (2020)
Activity calls are given as the source filed them. No cut-off for these calls is given here.

Tests used:
HepG2 [1] = assay: Antiproliferative activity against human HepG2 cells assessed as reduction in cell viability at 5 uM by MTS assay; assay type: functional, cell-based; details: TDE = time-dependent effect
HeLa [2] = assay: Inhibition of colony formation in human HeLa at 1 to 5 uM after 2 weeks by trypan blue staining based assay; assay type: functional, cell-based
HepG2 [3] = assay: Induction of autophagy in human HepG2 cells assessed as increase in formation of autophagosomes at 0.5 uM after 2 to 48 hrs by TEM analysis; assay type: functional, cell-based
HepG2 [4] = assay: Inhibition of colony formation in human HepG2 at 0.1 uM after 2 weeks by trypan blue staining based assay relative to control; assay type: functional; details: HepG2, 336 h
HeLa [5] = assay: Inhibition of colony formation in human HeLa at 0.1 uM after 2 weeks by trypan blue staining based assay relative to control; assay type: functional; details: 336 h
HepG2 [6] = assay: Induction of ROS generation in human HepG2 cells at 0.5 uM by DCFH-DA staining based fluorescence assay; assay type: functional, cell-based; details: TDE = time-dependent effect
T-24 = assay: Induction of apoptosis in human T24 cells assessed as increase in cleaved PARP1 level at 0.25 to 2 uM after 12 hrs by Western blot analysis; assay type: functional, cell-based
HepG2 [7] = assay: Induction of autophagy in human HepG2 cells assessed as inhibition of lactate generation at 0.5 uM up to 4 hrs; assay type: functional, cell-based
HepG2 [8] = assay: Induction of apoptosis in human HepG2 cells assessed as increase in cleaved PARP level by measuring ratio of cleaved PARP to total PARP level at 1 uM after 12 hrs by Western blot analysis; assay type: functional
HepG2 [9] = assay: Induction of apoptosis in human HepG2 cells assessed as increase in cleaved PARP level by measuring ratio of cleaved PARP to total PARP level at 2 uM after 12 hrs by Western blot analysis; assay type: functional

| Compound | Activity (HepG2 [1]) | inhibition (HeLa [2]) | Activity (HepG2 [3]) | inhibition at 0.1 µM (HepG2 [4]) [%] | inhibition at 0.1 µM (HeLa [5]) [%] | Activity (HepG2 [6]) | Activity (T-24) | inhibition (HepG2 [7]) | Ratio (HepG2 [8]) | Ratio (HepG2 [9]) |
| --- | --- | --- | --- | --- | --- | --- | --- | --- | --- | --- |
| CCC1(SC)C(=O)N2[C@H]3N(C)c4ccccc4C3(C34c5ccccc5N(C)[C@@H]3N3C(=O)C(SC)([C@@H](C)O)N(C)C(=O)C3(SC)[C@H]4O)[C@H](O)C2(SC)C(=O)N1C (stereo not given in full) | Tde | Active | Active |  |  |  |  |  |  |  |
| CC[C@@]12SS[C@]3(C(=O)N1C)[C@@H](O)C1(C45c6ccccc6N[C@@H]4N4C(=O)[C@]6([C@@H](C)O)SS[C@]4(C(=O)N6C)[C@H]5O)c4ccccc4N[C@@H]1N3C2=O (stereo not given in full) |  |  |  | 100 | 100 | Tde | Active | Active | 1 | 1.7 |
